{"source": "patent US7282484B2", "about": "“Anti-tumor agents” (Point Therapeutics, Inc., priority 1999, dated 2007)", "key": {"[1]": {"tested_on": "DPPIV-like activity of Fischer D+ and D− rat BM stromal cells", "experiment": "DPPIV-like activity assay on rat bone marrow stromal cells", "assay_type": "cell-based", "protocol": "(§1) Cell Source. 8-12 week old female wild type CD26 positive (D^+) and CD26 negative (D^−) Fischer rat (Charles River Labs, Japan) bone marrow.\n(§2) Bone marrow preparation. Bone marrow was flushed from each femur, tibia and fibula with Dulbecco's phosphate buffered saline (D-PBS) using a 21-gauge needle and a 10 ml syringe. After removal, the bone marrow was immediately aspirated through the needle to make a single cell suspension. The cells were washed twice with sterile PBS and resuspended in MyeloCult H5100 long-term culture (LTC) media, available from Stem Cell Technologies, and supplemented with freshly diluted 10^−6 M hydrocortisone, available from Sigma.\nEstablishment of adherent bone marrow stromal cell cultures. […]\nDPPIV-like activity assay. […] The reaction was stopped by removing the substrate solution from each well and measured in the fluorescence spectrophotometer or stored −20° C. Activity was measured using an excitation wavelength of 400 nm and emission wavelength of 505 nm.\nBone marrow stromal cells were established from the long bones of Fischer D^+ and D^− rats and cultured for 2 days in the presence or absence of PT-100. […] DPPIV-like activity is presented as velocity and the percent of protease activity inhibition with PT-100 is calculated relative to a ‘no treatment’ control."}, "[2]": {"tested_on": "Fischer D+ and D− rat bone marrow stromal cells", "experiment": "IL-6 release from rat bone marrow stromal cells (ELISA)", "assay_type": "cell-based", "conditions": "2 days incubation", "protocol": "as §1, §2\nEstablishment of adherent bone marrow stromal cell cultures. 1-2×10^7 cells were seeded into a T25 flask (Coming) containing 10 mls of LTC medium and incubated at 37° C. in 100% humidified 5% CO2 in air. After 1 week half the medium was exchanged for fresh medium and incubated for approximately 1 week until a confluent cell layer formed. PT-100 incubation. The adherent stromal cells were removed from the flask by trypsin-EDTA (Life Technologies, Inc.) digestion, washed once with sterile PBS and resuspended in long term culture medium at 1×10^5/ml. […]\nSimilar levels of IL-6 are secreted from bone marrow stromal cells of D^+ and D^− rats. […] IL-6 levels in the culture supernatant were determined by ELISA."}, "[3]": {"tested_on": "FAP-α+ CD26− primary human stromal cells", "experiment": "G-CSF release from FAP-α+ CD26− primary human stromal cells (ELISA)", "assay_type": "cell-based", "conditions": "human bone marrow cells lacking CD26 but expressing FAP-α, 2 days incubation", "protocol": "(§3) Cell source. Bone marrow was kindly donated by New England Medical Center, Boston, Mass. and Dr. Richard Benjamin from Brigham and Women's Hospital in Boston, Mass. Mononuclear cells were purified over Ficoll and used immediately or frozen in liquid nitrogen.\n(§4) Establishment of human stromal feeder layer. 2 to 4×10^7 human bone marrow mononuclear cells were seeded into a T75 flask (Corning) containing 20 mls of LTC medium and incubated. at 37° C. in 100% humidified 5% CO2 in air. After 1 week half the medium was exchanged for fresh medium and incubated for approximately 1 week when a confluent cell layer formed.\nELISA of human cells. Cultured supernatants were assayed for a high sensitivity ELISA (R+D Systems).\nPT-100 incubation, supernatant collection and DPPIV-like activity assay for human and rat cells were carried out in an identical manner.\nThe DPPIV-like activity associated with the intact cells was inhibited by-PT-100. Stromal cells were established from the bone marrow of a human volunteer as described in the materials and methods. The stromal cells were incubated for 2 days in the presence or absence of the indicated concentrations of PT-100 and cultured supernatants were assayed for IL-6 or DPPIV-like activity as described in Materials and Methods."}, "[4]": {"tested_on": "DPPIV-like activity of FAP-α+ CD26− primary human stromal cells", "experiment": "DPPIV-like activity assay on FAP-α+ CD26− primary human stromal cells", "assay_type": "cell-based", "conditions": "human stromal cells lacking CD26 but expressing FAP-α, 2 days incubation", "protocol": "DPPIV-like activity assay. Following the removal of supernatant from the stromal cultures, the adherent cells were washed with D-PBS and assayed for DPPIV-like activity. The fluorogenic substrate Ala-Pro-AFC was diluted in DPPIV buffer (50 mM Hepes, 140 mM NaCl) from the original stock of 10 mM (stored at −20° C. as a solution in dimethyl-formamide) to 1 mM, directly before the assay. 30 μl of the 1 mM stock was added per ml of buffer and the stromal cells were incubated for 10 minutes with 1 ml per well of the diluted substrate. The reaction was stopped by removing the substrate solution from each well and measured in the fluorescence spectrophotometer or stored −20° C. Activity was measured using an excitation wavelength of 400 nm and emission wavelength of 505 nm.\nas §3\nas §4, with “formed. […]” for “formed.”"}, "B16-F0 tumor": {"tested_on": "B16-F0 tumor", "experiment": "Established subcutaneous B16 melanoma in C57BL/6 mice", "assay_type": "in vivo, mouse", "protocol": "The highly metastic B16-F0 tumor was implanted subcutaneously (s.c.) in C57BL/6 mice. PT-100 administration was started on day 8 when palpable tumors were apparent. Tumor volumes were measured on days 8, 12, and 15. […] In the experiment of FIG. 4 each experimental group contained 10 animals."}, "WEHI-164 fibrosarcoma": {"tested_on": "WEHI-164 fibrosarcoma", "experiment": "Subcutaneous WEHI-164 fibrosarcoma in mice", "assay_type": "in vivo, mouse", "protocol": "Thus in the experiment of FIG. 5, the large reductions in tumor volume recorded were in part due to the absence of a palpable tumor in some of the mice:in each of the PT-100 treated groups (10 replicate animals per group). For example, in the mice treated with the 5 μg dose of PT-100 administered b.i.d., 6 of the animals were completely free of a detectable s.c. tumor. PT-100 treatment of the mice in the experimental groups was stopped on day 20, the day when the data of FIG. 5 were recorded."}, "[5]": {"conditions": "administration started on day 2 after implantation"}}, "note": "Where “and” joins values, the source holds several entries; their conditions need not be identical. Equal entries are not always repeated."}
{"smiles": "CC(C)[C@H](N)C(=O)N1CCC[C@H]1B(O)O", "note": "[PT-100, valine-proline-boronic acid]", "values": [{"measurement": "% Inhibition by 10^−6 M PT-100 of DPPIV-like activity", "setting": "[1]; Fischer D− (CD26 negative) rat BM stromal cells, 2 days culture, 10^−6 M, relative to no treatment control", "value": "86.4% and 73.8% and 62.1%"}, {"measurement": "Inhibition of DPPIV-like activity (in words)", "setting": "[1]; rat bone marrow stromal cells which lack CD26", "value": "potently inhibited"}, {"measurement": "IL-6 levels in culture supernatant", "setting": "[2]", "value": "enhanced"}, {"measurement": "G-CSF release", "setting": "[3]", "value": "potently stimulated"}, {"measurement": "Inhibition of DPPIV-like activity associated with the intact cells", "setting": "[4]", "value": "inhibited"}, {"measurement": "Tumor growth", "setting": "B16-F0 tumor; 160 μg administered for two days, day 8 and day 9", "value": "effective in suppressing tumor growth"}, {"measurement": "Tumor growth compared with saline treated control mice", "setting": "B16-F0 tumor; 10 and 40 μg p.o. b.i.d. from day 8 to 14, tumor volumes days 8, 12, 15", "value": "markedly inhibited"}, {"measurement": "Growth of B16 melanoma", "setting": "B16-F0 tumor; administered orally, mice", "value": "significantly inhibits"}, {"measurement": "Animals completely free of a detectable s.c. tumor", "setting": "WEHI-164 fibrosarcoma; 5 μg b.i.d., started day 2, recorded day 20, 10 animals per group", "value": 6, "unit": "animals"}, {"measurement": "Growth of WEHI-164 fibrosarcoma", "setting": "WEHI-164 fibrosarcoma; administered orally, mice", "value": "significantly inhibits"}, {"measurement": "Tumor growth", "setting": "WEHI-164 fibrosarcoma; [5]", "value": "tumor growth inhibited"}, {"measurement": "Tumor necrosis and regression", "setting": "WEHI-164 fibrosarcoma; [5]", "value": "a proportion of the tumors also became necrotic and apparently regressed completely"}, {"measurement": "Growth of an established s.c. tumor", "setting": "WEHI-164 fibrosarcoma; established s.c. WEHI-164 tumor", "value": "could suppress the growth"}, {"measurement": "Tumor recurrence in mice recorded as tumor-free on day 20", "setting": "WEHI-164 fibrosarcoma; treatment stopped on day 20, monitored up to day 30 after implantation", "value": "none of the mice recorded as tumor-free on day 20 has developed a detectable s.c. tumor"}]}
